In patent publication US20230271959A1, “HETEROCYCLIC COMPOUND AS BCL-2 INHIBITOR” (Beijing Innocare Pharma Tech Co., Ltd., priority 2020, published 2023) one finds IC50 data, which are given here for 15 molecules.

The test system of assay [1] is RS4;11 cells (acute lymphoblastic leukemia cells). As to the kind of experiment: RS4;11 cell proliferation, CellTilter-Glo luminescence cell viability assay. The class given is cell-based. The note with it: Homo sapiens, RS4-11; CTG readout after 48 hours. The gist of the method: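 RS4;11 cells plated overnight were exposed for 48 h at 37 °C, 5% CO2 to an 8-point, 4-fold compound dilution series; the vehicle control contained 0.2% DMSO. Viability was read by CellTiter-Glo luminescence. Percent inhibition was referenced to no-cell and DMSO controls, and IC50 came from a four-parameter sigmoidal fit.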

Assay [2] deals with T1, human recombinant Bcl-2 protein (Homo sapiens, UniProt P10415).
T1 construct: purchased Beijing Yigiao Shenzhou Biotechnology Co., Ltd. 10195-HOSE
In words: Fluorescence polarization test for inhibition of BCL-2 binding to FITC-BIM. The note with it: 5 nM BCL-2, 5 nM FITC-BIM, read-out: FP BCL-2 IC50. A digest of the protocol: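 FP competition: compound preincubated 15 min with recombinant human Bcl-2 (diluted to 5 nM), then FITC-BIM (diluted to 5 nM) added for 30 min at room temperature in PBS pH 7.4 with 1 mM DTT. Polarization read at 480/535 nm; IC50 from 8-point 4-fold series fitted by four-parameter equation.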
(Polarisation of emitted light reports the rotation of a fluorescent probe.)

Assay [3] deals with T2, human recombinant Bcl-XL protein (Homo sapiens, UniProt Q07817).
T2 construct: purchased Beijing Yiqiao Shenzhou Biotechnology Co., Ltd. 10455-H0SE
In words: Fluorescence polarization test for inhibition of BCL-XL binding to FITC-BIM. The note with it: 10 nM BCL-XL, 10 nM FITC-BIM, read-out: FP BCL-XL IC50. The gist of the method:
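Human recombinant Bcl-XL (10 nM diluted stock) preincubated with compound 15 min at RT in PBS pH 7.4, 1 mM DTT, then FITC-BIM peptide (10 nM diluted stock) added for 30 min in dark. FP read at ex 480/em 535 nm; no-protein wells = 100% inhibition; IC50 from 8-point 4-fold dilution curve fit.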

T1 sequence (P10415 whole entry): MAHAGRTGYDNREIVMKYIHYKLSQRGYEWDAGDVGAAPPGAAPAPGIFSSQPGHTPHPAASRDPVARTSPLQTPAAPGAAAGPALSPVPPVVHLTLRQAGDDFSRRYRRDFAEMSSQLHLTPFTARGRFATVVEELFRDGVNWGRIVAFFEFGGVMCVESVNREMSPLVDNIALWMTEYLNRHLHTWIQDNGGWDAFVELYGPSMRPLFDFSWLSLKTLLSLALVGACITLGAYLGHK
T2 sequence (Q07817 whole entry): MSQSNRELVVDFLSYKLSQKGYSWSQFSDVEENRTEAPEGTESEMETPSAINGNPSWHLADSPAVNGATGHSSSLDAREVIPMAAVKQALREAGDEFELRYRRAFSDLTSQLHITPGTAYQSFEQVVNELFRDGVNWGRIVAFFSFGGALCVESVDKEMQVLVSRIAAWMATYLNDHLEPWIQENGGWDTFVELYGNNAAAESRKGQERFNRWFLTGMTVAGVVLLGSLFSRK

In the case of `C[C@@H]1CN(c2ccc(C(=O)NS(=O)(=O)c3ccc(NCC4CCOCC4)c([N+](=O)[O-])c3)c(Oc3cnc4[nH]ccc4c3)c2)CCN1CC1=C(c2ccc(Cl)cc2)CCC2(CC2)C1` [Example 38], the concentration for half-maximal inhibition (IC50) (as a rule, the concentration needed to halve the response being measured) in assay [1] is 0.032 µM; in assay [2], 0.00524 µM; in assay [3], above 1 µM.
On to `C[C@@H]1CN(c2ccc(C(=O)NS(=O)(=O)c3ccc(NCC4CCOCC4)c([N+](=O)[O-])c3)c(Oc3cnc4[nH]ccc4c3)c2)CCN1CC1=C(c2ccc(Cl)cc2)CC(C)(C)C(C)(C)C1` [Example 39, (R)-2-((1H-pyrrolo[2,3-b]pyridin-5-yl)oxy)-4-(4-((4′-chloro-4,4,5,5-tetramethyl-3,4,5,6-tetrahydro-[1,1′-biphenyl]-2-yl)methyl)-3-methylpiperazin-1-yl)-N-((3-nitro-4--(((tetrahydro-2H-pyran-4-yl)methyl)amino)phenyl)sulfonyl)benzamide], for which the IC50 was 0.0145 µM in assay [1], 0.00268 µM in assay [2] and above 1 µM in assay [3].
The like results for `C[C@@H]1CN(c2ccc(C(=O)NS(=O)(=O)c3cc(F)c(NCC4CCOCC4)c([N+](=O)[O-])c3)c(Oc3cnc4[nH]ccc4c3)c2)CCN1CC1=C(c2ccc(Cl)cc2)CC(C)(C)C(C)(C)C1` [Example 40] were, in that order, 0.015 µM, 0.00177 µM and above 1 µM.
For `C[C@@H]1CN(c2ccc(C(=O)NS(=O)(=O)c3cc(F)c(NC[C@H]4COCCO4)c([N+](=O)[O-])c3)c(Oc3cnc4[nH]ccc4c3)c2)CCN1CC1=C(c2ccc(Cl)cc2)CC(C)(C)C(C)(C)C1` [Example 41, N-((4-((((S)-1,4-dioxan-2-yl)methyl)amino)-3-fluoro-5-nitrophenyl)sulfonyl)-2-((1H-pyrrolo[2,3-b]pyridin-5-yl)oxy)-4-((R)-4-((4′-chloro-4,4,5,5-tetramethyl-3,4,5,6-tetrahydro-[1,1′-biphenyl]-2-yl)methyl)-3-methylpiperazin-1-yl)benzamide] the same measures were 0.008 µM, 0.00128 µM and above 1 µM.
The like results for `C[C@@H]1CN(c2ccc(C(=O)NS(=O)(=O)c3ccc(NC[C@H]4COCCO4)c([N+](=O)[O-])c3)c(Oc3cnc4[nH]ccc4c3)c2)CCN1CC1=C(c2ccc(Cl)cc2)CC(C)(C)C(C)(C)C1` [Example 42, N-((4-((((S)-1,4-dioxan-2-yl)methyl)amino)-3-nitrophenyl)sulfonyl)-2-((1H-pyrrolo[2,3-b]pyridin-5-yl)oxy)-4-((R)-4-((4′-chloro-4,4,5,5-tetramethyl-3,4,5,6-tetrahydro-[1,1′-biphenyl]-2-yl)methyl)-3-methylpiperazin-1-yl) benzamide] were, in that order, 0.01 µM, 0.00153 µM and above 1 µM.
With `C[C@@H]1CN(CC2=C(c3ccc(Cl)cc3)CCC(C)(C)C2)CCN1c1ccc(C(=O)NS(=O)(=O)c2cc(F)c(NCC3CCOCC3)c([N+](=O)[O-])c2)c(Oc2cnc3[nH]ccc3c2)c1` [Example 43, (R)-2-((1H-pyrrolo[2,3-b]pyridin-5-yl)oxy)-4-(4-((4′-chloro-4,4-dimethyl-3,4,5,6-tetrahydro[1,1′-biphenyl]-2-yl)methyl)-2-methylpiperazin-1-yl)-N-((3-fluoro-5-nitro-4--(((tetrahydro-2H-pyran-4-yl)methyl)amino)phenyl)sulfonyl)benzamide], the values for the IC50 in assay [1], in assay [2] and in assay [3] were 0.161 µM, 0.00633 µM and above 1 µM, respectively.
As for `C[C@@H]1CN(CC2=C(c3ccc(Cl)cc3)CCC(C)(C)C2)CCN1c1ccc(C(=O)NS(=O)(=O)c2ccc(NC[C@H]3COCCO3)c([N+](=O)[O-])c2)c(Oc2cnc3[nH]ccc3c2)c1` [Example 44, N-((4-((((S)-1,4-dioxan-2-yl)methyl)amino)-3-nitrophenyl)sulfonyl)-2-((1H-pyrrolo[2,3-b]pyridin-5-yl)oxy)-4-((R)-4-((4′-chloro-4,4-dimethyl-3,4,5,6-tetrahydro-[1,1′-biphenyl]-2-yl)methyl)-2-methylpiperazin-1-yl) benzamide], the IC50 in assay [1] was 0.054 µM; in assay [2] it was 0.00498 µM; in assay [3] it was above 1 µM.
With `C[C@@H]1CN(CC2=C(c3ccc(Cl)cc3)CCC(C)(C)C2)CCN1c1ccc(C(=O)NS(=O)(=O)c2cc(F)c(NC[C@H]3COCCO3)c([N+](=O)[O-])c2)c(Oc2cnc3[nH]ccc3c2)c1` [Example 45, N-((4-((((S)-1,4-dioxan-2-yl)methyl)amino)-3-fluoro-5-nitrophenyl)sulfonyl)-2-((1H-pyrrolo[2,3-b]pyridin-5-yl)oxy)-4-((R)-4-((4′-chloro-4,4-dimethyl-3,4,5,6-tetrahydro-[1,1′-biphenyl]-2-yl)methyl)-2-methylpiperazin-1-yl)benzamide], the half-maximal inhibitory concentration (IC50) in assay [1] was 0.052 µM; in assay [2], 0.00422 µM; in assay [3], above 1 µM.
As to `C[C@@H]1CN(CC2=C(c3ccc(Cl)cc3)CC(C)(C)CC2)CCN1c1ccc(C(=O)NS(=O)(=O)c2cc(F)c(NC[C@H]3COCCO3)c([N+](=O)[O-])c2)c(Oc2cnc3[nH]ccc3c2)c1` [Example 46], the results for the IC50 in assay [1], in assay [2] and in assay [3] were 0.018 µM, 0.00109 µM and above 1 µM, respectively.
In the case of `C[C@H]1CN(c2ccc(C(=O)NS(=O)(=O)c3cc(F)c(NC[C@H]4COCCO4)c([N+](=O)[O-])c3)c(Oc3cnc4[nH]ccc4c3)c2)CCN1CC1=C(c2ccc(Cl)cc2)CC(C)(C)CC1` [Example 47, N-((4-((((S)-1,4-dioxan-2-yl)methyl)amino)-3-fluoro-5-nitrophenyl)sulfonyl)-2-((1H-pyrrolo[2,3-b]pyridin-5-yl)oxy)-4-((S)-4-((4′-chloro-5,5-dimethyl-3,4,5,6-tetrahydro-[1,1′-biphenyl]-2-yl)methyl)-3-methylpiperazin-1-yl) benzamide], the half-inhibitory concentration (IC50) in assay [1] was 0.486 µM; in assay [2] it was above 0.1 µM; in assay [3], above 1 µM.
Take `C[C@H]1CN(c2ccc(C(=O)NS(=O)(=O)c3ccc(NC[C@H]4COCCO4)c([N+](=O)[O-])c3)c(Oc3cnc4[nH]ccc4c3)c2)CCN1CC1=C(c2ccc(Cl)cc2)CC(C)(C)CC1` [Example 48, N-((4-((((S)-1,4-dioxan-2-yl)methyl)amino)-3-nitrophenyl)sulfonyl)-2-((1H-pyrrolo[2,3-b]pyridin-5-yl)oxy)-4-((S)-4-((4′-chloro-5,5-dimethyl-3,4,5,6-tetrahydro-[1,1′-biphenyl]-2-yl)methyl)-3-methylpiperazin-1-yl) benzamide]: the IC50 in assay [1] is 0.229 µM; in assay [2] it was 0.0638 µM; in assay [3], above 1 µM.
In the case of `C[C@H]1CN(c2ccc(C(=O)NS(=O)(=O)c3ccc(NC[C@H]4COCCO4)c([N+](=O)[O-])c3)c(Oc3cnc4[nH]ccc4c3)c2)CCN1CC1=C(c2ccc(Cl)cc2)CCC(C)(C)C1` [Example 49, N-((4-((((S)-1,4-dioxan-2-yl)methyl)amino)-3-nitrophenyl)sulfonyl)-2-((1H-pyrrolo[2,3-b]pyridin-5-yl)oxy)-4-((S)-4-((4′-chloro-4,4-dimethyl-3,4,5,6-tetrahydro-[1,1′-biphenyl]-2-yl)methyl)-3-methylpiperazin-1-yl) benzamide], the IC50 in assay [1] is above 0.5 µM; in assay [2], above 0.1 µM; in assay [3] it was above 1 µM.
For `C[C@H]1CN(c2ccc(C(=O)NS(=O)(=O)c3ccc(NCC4CCOCC4)c([N+](=O)[O-])c3)c(Oc3cnc4[nH]ccc4c3)c2)CCN1CC1=C(c2ccc(Cl)cc2)CC(C)(C)CC1` [Example 50, (S)-2-((1H-pyrrolo[2,3-b]pyridin-5-yl)oxy)-4-(4-((4′-chloro-5,5-dimethyl-3,4,5,6-tetrahydro-[1,1′-biphenyl]-2-yl)methyl)-3-methylpiperazin-1-yl)-N-((3-nitro-4--(((tetrahydro-2H-pyran-4-yl)methyl)amino)phenyl)sulfonyl) benzamide] the same measures were above 0.5 µM, above 0.1 µM and above 1 µM.
Take `C[C@H]1CN(c2ccc(C(=O)NS(=O)(=O)c3ccc(NC[C@@H]4COCCO4)c([N+](=O)[O-])c3)c(Oc3cnc4[nH]ccc4c3)c2)CCN1CC1=C(c2ccc(Cl)cc2)CC(C)(C)CC1` [Example 51, N-((4-((((R)-1,4-dioxan-2-yl)methyl)amino)-3-nitrophenyl)sulfonyl)-2-((1H-pyrrolo[2,3-b]pyridin-5-yl)oxy)-4-((S)-4-((4′-chloro-5,5-dimethyl-3,4,5,6-tetrahydro-[1,1′-biphenyl]-2-yl)methyl)-3-methylpiperazin-1-yl) benzamide]: the IC50 in assay [1] was above 0.5 µM; in assay [2], above 0.1 µM; in assay [3], above 1 µM.
The like results for `C[C@@H]1CN(c2ccc(C(=O)NS(=O)(=O)c3ccc(NC[C@@H]4COCCO4)c([N+](=O)[O-])c3)c(Oc3cnc4[nH]ccc4c3)c2)CCN1CC1=C(c2ccc(Cl)cc2)CC(C)(C)CC1` [Example 52, N-((4-((((R)-1,4-dioxan-2-yl)methyl)amino)-3-nitrophenyl)sulfonyl)-2-((1H-pyrrolo [2,3-b]pyridin-5-yl)oxy)-4-((R)-4-((4′-chloro-5,5-dimethyl-3,4,5,6-tetrahydro-[1,1′-biphenyl]-2-yl)methyl)-3-methylpiperazin-1-yl) benzamide] were, in that order, 0.0051 µM, 0.0019 µM and above 1 µM.
